Measured values published in patent publication US12286435B2, “Compound having benzo seven-membered ring structure, preparation method therefor, and use thereof” (BIONNA (BEIJING) MEDICAL TECHNOLOGY CO., LTD., priority 2019, dated 2025).

Assays:
[1] = tested on: multiple myeloma MM.1S cell line; assay: Cell viability (CCK-8), multiple myeloma MM.1S; type: cell-based; details: MM.1S cells, 4 days, CCK-8, 50% inhibition of cell growth
Protocol: 3. Determination of cell viability of the compound
The sample to be tested was dissolved with 100% dimethyl sulfoxide to prepare a 20 mM stock solution of the compound, which was diluted with 100% dimethyl sulfoxide to the highest compound concentration required for the experiment (2.5 mM).
First, 145 uL of a complete cell culture medium was added to wells B1-G1 of a 96-well flat-bottomed tansparent cell culture plate, and 100 uL of the complete medium was added to wells B2-G12, respectively. Then, 5 uL of the 2.5 mM solution of the compound was added to wells B1-D1 and E1-G1 respectively, and then diluted gradiently by 3-folds to B12-D12 and E12-G12 in sequence. Finally, 50 uL of the solution of the cells to be tested was added to each well, with about 3000-5000 cells per well, and a total volume of 150 uL per well.
In the experiment, in addition to the tested compound, two other control groups were set up: 1) a control group adding the cells and the complete medium, but without adding the compound; 2) a control group adding the complete medium only, without adding the cells and the compound. The 96-well plate was placed in a 37° C. cell culture incubator containing 5% carbon dioxide for 4 days, added with 15 uL of a CCK-8 reagent per well, and then incubated at 37° C. for 2-4 hours. The 96-well plate was read on a TECAN microplate reader, and the absorbance value at 450 nm wavelength was taken.
The effect of different concentrations of the compound on cell viability was calculated by the following equation: [absorption value of the experimental group−absorption value of pure cell culture medium without the cells or the compound]/[absorption value of the control group with the tumor cells but no testing compound−absorption value of pure cell culture medium without the cell or the compound]×100%.
The above data were precessed by software, and the IC50 value was the concentration of the compound corresponding to the 50% inhibition rate of cell growth.
Based on the above test method of the compound on cell viability, a variety of […] cancer cell lines were tested, using multiple myeloma MM.1S, breast cancer MDA-MB-231 and leukemia MV4-11 cell lines as exemples. Using this test method, the IC50 values of partial compounds in the examples of the present invention measured in multiple myeloma MM.1S, breast cancer MDA-MB-231 cell lines and leukemia MV4-11 cell lines were shown in Table 2.

BRD4 BD1 protein = BRD4 BD1 protein (Homo sapiens (Human), UniProt O60885); assay: Fluorescence polarization binding affinity (Ki) with BRD4 BD1 protein; details: fluorescence polarization; Ki calculated from IC50
BRD4 BD2 protein = BRD4 BD2 protein (Homo sapiens (Human), UniProt O60885); assay: Fluorescence polarization binding affinity (Ki) with BRD4 BD2 protein; details: fluorescence polarization; Ki calculated from IC50

Row | IC50 ([1]; Homo sapiens, MM1.S, 96 h) [nM] | Ki (BRD4 BD1 protein) [nM] | Ki (BRD4 BD2 protein) [nM] | IC50 [1] [nM] | Compound
1 | 559 | 169 | 105 | – | COc1ccc(NC2CCc3onc(C)c3-c3ccc(OC)cc32)cc1 (stereo not drawn) [FA01, 8-methoxy-N-(4-methoxyphenyl)-1-methyl-5,6-dihydro-4H-benzo[6,7]cyclohepta[1,2-d]isoxazol-6-amine]
2 | 502 | 206 | 56.3 | – | COc1ccc2c(c1)C(Nc1ccccc1)CCc1onc(C)c1-2 (stereo not drawn) [FA03, 8-methoxy-1-methyl-N-phenyl-5,6-dihydro-4H-benzo[6,7]cyclohepta[1,2-d]isoxazol-6-amine]
3 | 25.2 | 204 | 138 | – | COc1ccc2c(c1)C(Nc1ccc(C(F)(F)F)cc1)CCc1onc(C)c1-2 (stereo not drawn) [FA05, 8-methoxy-1-methyl-N-(4-(trifluoromethyl)phenyl)-5,6-dihydro-4H-benzo[6,7]cyclohepta[1,2-d]isoxazol-6-amine]
4 | 26.5 | 53.7 | 25.5 | – | Cc1noc2c1-c1ccc(-c3cnn(C)c3)cc1C(Nc1ccc(Cl)cc1)CC2 (stereo not drawn) [LA55, N-(4-chlorophenyl)-1-methyl-8-(1-methyl-1H-pyrazol-4-yl)-5,6-dihydro-4H-benzo[6,7]cyclohepta[1,2-d]isoxazol-6-amine]
5 | 30.2 | 80.5 | 31.7 | – | Cc1noc2c1-c1ccc(-c3cn[nH]c3)cc1C(Nc1ccc(Cl)cc1)CC2 (stereo not drawn) [LA108, N-(4-chlorophenyl)-1-methyl-8-(1H-pyrazol-4-yl)-5,6-dihydro-4H-benzo[6,7]cyclohepta[1,2-d]isoxazol-6-amine]
6 | 22.9 | 44 | 21.4 | – | Cc1nnn2c1-c1ccc(-c3cnn(C)c3)cc1C(Nc1ccccc1CCO)CC2 (stereo not drawn) [LA198, 2-(2-((1-methyl-9-(1-methyl-1H-pyrazol-4-yl)-6,7-dihydro-5H-benzo[c][1,2,3]triazolo[1,5-a]azepin-7-yl)amino)phenyl)ethan-1-ol]
7 | 119 | 236 | 44 | – | Cc1nnn2c1-c1ccc(-c3cnn(C)c3)cc1C(Nc1ccc(N(C)C)cc1)CC2 (stereo not drawn) [LB17, N^1,N^1-dimethyl-N^4-(1-methyl-9-(1-methyl-1H-pyrazol-4-yl)-6,7-dihydro-5H-benzo[c][1,2,3]triazolo[1,5-a]azepin-7-yl)benzene-1,4-diamine]
8 | 2460 | 1720 | 82.8 | – | Cc1nnn2c1-c1ccc(-c3cnn(C)c3)cc1C(Nc1ccc(C(=O)O)cc1)CC2 (stereo not drawn) [LB20, 4-((1-methyl-9-(1-methyl-1H-pyrazol-4-yl)-6,7-dihydro-5H-benzo[c][1,2,3]triazolo[1,5-a]azepin-7-yl)amino)benzoic acid]
9 | 51.7 | 64.5 | 22.4 | – | Cc1nnn2c1-c1ccc(-c3cnn(C)c3)cc1C(Nc1ccc(CCO)cc1)CC2 (stereo not drawn) [LB24, 2-(4-((1-methyl-9-(1-methyl-1H-pyrazol-4-yl)-6,7-dihydro-5H-benzo[c][1,2,3]triazolo[1,5-a]azepin-7-yl)amino)phenyl)ethan-1-ol]
10 | 602 | 235 | 43.7 | – | Cc1nnn2c1-c1ccc(-c3cnn(C)c3)cc1C(Nc1ccc(C(N)=O)cc1)CC2 (stereo not drawn) [LB32, 4-((1-methyl-9-(1-methyl-1H-pyrazol-4-yl)-6,7-dihydro-5H-benzo[c][1,2,3]triazolo[1,5-a]azepin-7-yl)amino)benzamide]
11 | 36.5 | 614 | 23.9 | – | Cc1nnn2c1-c1ccc(-c3cnn(C)c3)cc1C(Nc1ccc(CO)cc1)CC2 (stereo not drawn) [LB35, (4-((1-methyl-9-(1-methyl-1H-pyrazol-4-yl)-6,7-dihydro-5H-benzo[c][1,2,3]triazolo[1,5-a]azepin-7-yl)amino)phenyl)methanol]
12 | 412 | 97.6 | 42.5 | – | Cc1nnn2c1-c1ccc(-c3cnn(C)c3)cc1C(Nc1ccc(CC(=O)O)cc1)CC2 (stereo not drawn) [LB36, 2-(4-((1-methyl-9-(1-methyl-1H-pyrazol-4-yl)-6,7-dihydro-5H-benzo[c][1,2,3]triazolo[1,5-a]azepin-7-yl)amino)phenyl)acetic acid]
13 | – | 34.5 | 8.19 | 16 | CNC(=O)Cc1ccc(NC2CCn3nnc(C)c3-c3ccc(-c4cnn(C)c4)cc32)cc1 (stereo not drawn) [LB42, N-methyl-2-(4-((1-methyl-9-(1-methyl-1H-pyrazol-4-yl)-6,7-dihydro-5H-benzo[c][1,2,3]triazolo[1,5-a]azepin-7-yl)amino)phenyl)acetamide]
14 | 14000 | 229 | 13 | – | Cc1nnn2c1-c1ccc(-c3cnn(C)c3)cc1C(Nc1cccc(CC(=O)O)c1)CC2 (stereo not drawn) [LB62, 2-(3-((1-methyl-9-(1-methyl-1H-pyrazol-4-yl)-6,7-dihydro-5H-benzo[c][1,2,3]triazolo[1,5-a]azepin-7-yl)amino)phenyl) acetic acid]
15 | 160 | 77.8 | 14 | – | COC(=O)Cc1cccc(NC2CCn3nnc(C)c3-c3ccc(-c4cnn(C)c4)cc32)c1 (stereo not drawn) [LB63, methyl 2-(3-((1-methyl-9-(1-methyl-1H-pyrazol-4-yl)-6,7-dihydro-5H-benzo[c][1,2,3]triazolo[1,5-a]azepin-7-yl)amino)phenyl)acetate]
16 | 112 | 68.5 | 13 | – | Cc1nnn2c1-c1ccc(-c3cnn(C)c3)cc1C(Nc1ccc(OCCO)cc1)CC2 (stereo not drawn) [LB68, 2-(4-((1-methyl-9-(1-methyl-1H-pyrazol-4-yl)-6,7-dihydro-5H-benzo[c][1,2,3]triazolo[1,5-a]azepin-7-yl)amino)phenoxy)ethanol]
17 | 71.7 | 99.9 | 6 | – | Cc1nnn2c1-c1ccc(-c3cnn(C)c3)cc1C(Nc1cccc(OCCO)c1)CC2 (stereo not drawn) [LB77, 2-(3-((1-methyl-9-(1-methyl-1H-pyrazol-4-yl)-6,7-dihydro-5H-benzo[c][1,2,3]triazolo[1,5-a]azepin-7-yl)amino)phenoxy)ethanol]
18 | 250 | 180 | 38.4 | – | Cc1nnn2c1-c1ccc(-c3cnn(C)c3)cc1C(Nc1ccc(C(O)(C(F)(F)F)C(F)(F)F)cc1)CC2 (stereo not drawn) [LB83, 1,1,1,3,3,3-hexafluoro-2-(4-((1-methyl-9-(1-methyl-1H-pyrazol-4-yl)-6,7-dihydro-5H-Benzo[c][1,2,3]triazolo[1,5-a]azepin-7-yl)amino)phenyl)propan-2-ol]
19 | 45.1 | 56 | 14 | – | Cc1nnn2c1-c1ccc(-c3cnn(C)c3)cc1C(Nc1cccc3ncccc13)CC2 (stereo not drawn) [LB86, 1-methyl-9-(1-methyl-1H-pyrazol-4-yl)-N-(quinolin-5-yl)-6,7-dihydro-5H-benzo[c][1,2,3]triazolo[1,5-a]azepin-7-amine]
20 | 24.3 | 137 | 15.1 | – | Cc1nnn2c1-c1ccc(-c3cnn(C)c3)cc1C(Nc1ccc3ncccc3c1)CC2 (stereo not drawn) [LB88, 1-methyl-9-(1-methyl-1H-pyrazol-4-yl)-N-(quinolin-6-yl)-6,7-dihydro-5H-benzo[c][1,2,3]triazolo[1,5-a]azepin-7-amine]
21 | 143 | 426 | 50.5 | – | Cc1nnn2c1-c1ccc(-c3cnn(C)c3)cc1C(Nc1ccc3cccnc3c1)CC2 (stereo not drawn) [LB89, 1-methyl-9-(1-methyl-1H-pyrazol-4-yl)-N-(quinolin-7-yl)-6,7-dihydro-5H-benzo[c][1,2,3]triazolo[1,5-a] azepin-7-amine]
